According to the NIST ThermoML archive (doi:10.1016/j.fluid.2012.08.016):

Assay: xn = mol fraction of the nth substance listed
Settings: Liquid, Vibrating tube method, x2 = 0.667

C[N+](C)(C)CCO.[Cl-] [choline chloride] + OCC(O)CO
mass density [kg/m3]
Settings	298.15 K	303.15 K	308.15 K	313.15 K	318.15 K	323.15 K
100 kPa	1192.1	1189.2	1186.2	1183.4	1180.5	1177.7
5000 kPa	1193.6	1190.7	1187.7	1184.9	1182	1179.2
10000 kPa	1195	1192.1	1189.2	1186.3	1183.5	1180.6
15000 kPa	1196.3	1193.5	1190.6	1187.7	1184.9	1182.1
20000 kPa	1197.7	1194.8	1192	1189.1	1186.3	1183.5
25000 kPa	1199.1	1196.2	1193.3	1190.5	1187.7	1184.9
30000 kPa	1200.4	1197.6	1194.7	1191.9	1189.1	1186.3
35000 kPa	1201.7	1198.9	1196	1193.3	1190.4	1187.7
40000 kPa	1203	1200.2	1197.4	1194.6	1191.8	1189.1
45000 kPa	1204.3	1201.5	1198.7	1195.9	1193.1	1190.4
50000 kPa	1205.6	1202.8	1200	1197.2	1194.4	1191.7
